According to ChEMBL document CHEMBL5634186, “Structure-Activity Relationship Study of Biselyngbyolide B Reveals Mitochondrial Fission-Induced Cytotoxicity in Cancer” (ACS Med Chem Lett, 2024):

Assays:
[1] = Cytotoxicity against HEK293 cells assessed as reduction in cell viability incubated for 16 hrs by MTT assay; assay type: toxicity, cell-based; details: human
HCT-116 = test: Anticancer activity against human HCT-116 cells assessed as inhibition of cell viability incubated for 16 hrs by MTT assay; assay type: functional, cell-based; details: HCT-116, 16 h

**Q.** With CO[C@H]1C/C=C/[C@@H](O)CC(=O)O[C@@H](c2ccc(C)cc2)C/C=C/C=C/C[C@H](C)/C=C/1C as the compound, how does the IC50 at 16 h [1] read?
**A.** 16.5 µM

**Q.** What about the IC50 (HCT-116) of the same compound?
**A.** 7.8 µM

**Q.** Which results are given for C/C=C/C/C(C)=C\[C@H]1C/C=C/C=C/C[C@H](C)/C=C/[C@@H](OC)C/C=C/[C@@H](O)CC(=O)O1?
**A.** IC50 at 16 h [1]: 11.8 µM; IC50 (HCT-116): 7.1 µM

**Q.** Which IC50 at 16 h [1] does the source give for C/C=C/C/C(C)=C\[C@H]1C/C=C/C=C/C[C@H](C)/C=C(\C)[C@@H](OC)C[C@@H](O)C[C@@H](O)CC(=O)O1 here?
**A.** 20.8 µM

**Q.** What about the IC50 (HCT-116) of the same compound?
**A.** 0.1 µM

**Q.** What does the source list for C/C=C/C/C(C)=C\[C@H]1C/C=C/C=C/C[C@H](C)/C=C(\C)[C@@H](OC)C/C=C/[C@@H](O)CC(=O)O1?
**A.** IC50 at 16 h [1]: 20.6 µM; IC50 (HCT-116): 3.2 µM

**Q.** What does the source list for C/C=C/C/C(C)=C\[C@H]1C/C=C/C=C/C[C@H](C)/C=C(\C)[C@@H](O)C/C=C/[C@@H](O)CC(=O)O1?
**A.** IC50 at 16 h [1]: 21.6 µM; IC50 (HCT-116): 6.9 µM

**Q.** Which IC50 at 16 h [1] does the source give for C/C=C/C/C(C)=C\[C@@H]1C/C=C/C=C/C[C@H](C)/C=C(\C)[C@@H](OC)C/C=C/[C@@H](O)CC(=O)O1 here?
**A.** 18.1 µM

**Q.** And the IC50 (HCT-116)?
**A.** 8.9 µM
